From article PMC12530851, “Design, synthesis, and apoptotic antiproliferative activity of novel dihydropyrimidine-5-carbonitrile/1,2,4-oxadiazole hybrids as dual EGFR/VEGFR-2 inhibitors endowed with antioxidant activity” (RSC Advances, 2025) come the findings set out here.

One assay deals with A-549 (lung cancer). Put plainly: Antiproliferative assay, A-549. It is filed as cell-based. The settings on record: Homo sapiens, A549; A-549 lung cancer cells; read-out: Antiproliferative activity IC50 ± SEM, A-549. The source says: (§1) The dose–response experiments established the IC50 values for the new compounds. The given findings were obtained from at least two distinct studies, each comprising three repeats per concentration. Appendix A (SI File) provides experimental details.[38,39]
(§2) The MTT assay[43] was utilized to assess the antiproliferative effects of compounds 10a–l on four human cancer cell lines: HT-29 (colon cancer), Panc-1 (pancreatic cancer), A-549 (lung cancer), and MCF-7 (breast cancer). […]
(§3) 4.2.2. Assay for antiproliferative effect
(§4) To explore the antiproliferative potential of compounds propidium iodide fluorescence assay was performed using different cell lines such as Panc-1 (pancreas cancer cell line), MCF-7 (breast cancer cell line), HT-29 (colon cancer cell line) and A-549 (epithelial cancer cell line), respectively. To calculate the total nuclear DNA, a fluorescent dye (propidium iodide, PI) is used which can attach to the DNA, thus offering a quick and precise technique. PI cannot pass through the cell membrane and its signal intensity can be considered as directly proportional to quantity of cellular DNA. Cells whose cell membranes are damaged or have changed permeability are counted as dead ones. The assay was performed by seeding the cells of different cell lines at a density of 3000-7500 cells/well (in 200μl medium) in culture plates followed by incubation for 24h at 37 °C in humidified 5%CO2/95% air atmospheric conditions. The medium was removed; the compounds were added to the plates at 10 μM concentrations (in 0.1% DMSO) in triplicates, followed by incubation for 48h. DMSO (0.1%) was used as control. After incubation, medium was removed followed by the addition of PI (25 μl, 50μg/mL in water/medium) to each well of the plates. At - 80 °C, the plates were allowed to freeze for 24 h, followed by thawing at 25 °C. A fluorometer (Polar-Star BMG Tech) was used to record the readings at excitation and emission wavelengths of 530 and 620 nm for each well. The percentage cytotoxicity of compounds was calculated using […]
(§5) Where ATC= Absorbance of treated cells and AC= Absorbance of control. Erlotinib was used as positive control in the assay. […]

A further assay relates to HT-29 (colon cancer). In words: Antiproliferative assay, HT-29. It is filed as cell-based. To be noted: Homo sapiens; HT-29 colon cancer cells; read-out: Antiproliferative activity IC50 ± SEM, HT-29.
Excerpt: as §1, §2, §3, §4, §5

A further assay concerns Bax. Put plainly: Bax activation assay in MCF-7 cells. It is filed as cell-based, human. To be noted: for Bax Fold change: vs untreated control. On the procedure:
Compounds10k and 10l were tested as caspases-3, 8, 9, Bax and p53 activators and as down-regulators of the anti-apoptotic protein Bcl2 against the MCF-7 breast cancer cell line.[41] Appendix A gives more details.
The Bcl-2 protein family, which includes pro-apoptotic proteins (Bax) and anti-apoptotic proteins (Bcl-2), primarily regulates apoptosis.[46] […] Consequently, we assessed the expression levels of Bcl-2 and Bax proteins in MCF-7 breast cancer cells treated with compounds 10k and 10l, Table 6. […]
Cells were obtained from American Type Culture Collection, cells were grown in RPMI 1640 containing 10% fetal bovine serum at 37°C, stimulated with the compounds to be tested for caspase 8/9, and lysed with Cell Extraction Buffer. This lysate was diluted in Standard Diluent Buffer over the range of the assay and measured for human active caspase-8/9 content. (Cells are Plated in a density of 1.2 – 1.8 × 10,000 cells/well in a volume of 100µl complete growth medium + 100 ul of the tested compound per well in a 96-well plate for 24 hours before the enzyme assay). […]
4.2.7. Bax activation assay
Bring all reagents, except the human Bax-α Standard, to room temperature for at least 30 minutes prior to opening. The human Bax-α Standard solution should not be left at room temperature for more than 10 minutes. All standards, controls and samples should be run in duplicate. Refer to the Assay Layout Sheet to determine the number of wells to be used and put any remaining wells with the desiccant back into the pouch and seal the ziploc. Store unused wells at 4 °C. Pipet 100 μL of Assay Buffer into the S0 (0 pg/mL standard) wells. Pipet 100 μL of Standards #1 through #6 into the appropriate wells. Pipet 100 μL of the Samples into the appropriate wells. Tap the plate gently to mix the contents. Seal the plate and incubate at room temperature on a plate shaker for 1 hour at ~500 rpm. Empty the contents of the wells and wash by adding 400 μL of wash solution to every well. Repeat the wash 4 more times for a total of 5 washes. After the final wash, empty or aspirate the wells and firmly tap the plate on a lint free paper towel to remove any remaining wash buffer.
Pipet 100 μL of yellow Antibody into each well, except the Blank. Seal the plate and incubate at room temperature on a plate shaker for 1 hour at ~500 rpm. Empty the contents of the wells and wash by adding 400 μL of wash solution to every well. Repeat the wash 4 more times for a total of 5 washes. […]
Pipet 100 μL of Substrate Solution into each well. […] Blank the plate reader against the Blank wells, read the optical density at 450 nm. […]
The concentration of Bax in the unknowns can be determined by interpolation. […]

Another assay concerns the target EGFR (Homo sapiens, UniProt P00533). Put plainly: EGFR inhibitory assay (EGFR-TK test). The settings on record: for EGFR inhibitory potency relative to erlotinib: more potent than erlotinib.

Chain of EGFR (P00533 669-1210): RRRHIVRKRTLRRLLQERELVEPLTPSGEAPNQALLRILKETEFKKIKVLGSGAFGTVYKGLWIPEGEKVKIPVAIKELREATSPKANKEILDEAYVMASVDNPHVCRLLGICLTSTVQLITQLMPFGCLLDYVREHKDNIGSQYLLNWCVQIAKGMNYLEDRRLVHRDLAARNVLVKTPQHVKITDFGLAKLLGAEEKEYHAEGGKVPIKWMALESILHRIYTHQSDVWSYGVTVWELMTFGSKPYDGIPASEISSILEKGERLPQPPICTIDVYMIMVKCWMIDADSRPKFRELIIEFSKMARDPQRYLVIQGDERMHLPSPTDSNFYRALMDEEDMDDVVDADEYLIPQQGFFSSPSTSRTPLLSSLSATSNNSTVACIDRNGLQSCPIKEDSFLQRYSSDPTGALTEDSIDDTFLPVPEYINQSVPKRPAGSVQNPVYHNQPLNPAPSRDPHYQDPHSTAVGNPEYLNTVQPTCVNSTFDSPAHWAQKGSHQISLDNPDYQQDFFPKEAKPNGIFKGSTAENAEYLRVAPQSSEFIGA
Description for EGFR: Baculoviral expression vectors including pBlueBacHis2B and pFASTBacHTc were used
5ʹ upstream to the EGFR sequence comprised a sequence that encoded (His)6. Sf-9 cells were infected for 72h for protein expression. The pellets of Sf-9 cells were solubilized in a buffer containing sodium vanadate (100 μM), aprotinin (10 μg/mL), triton (1%), HEPES
buffer(50mM), ammonium molybdate (10 μM), benzamidine HCl (16 μg/mL), NaCl (10 mM),leupeptin (10 μg/mL) and pepstatin (10 μg/mL) at 0°C for 20 min at pH 7.4, followed by centrifugation for 20 min. To eliminate the nonspecifically bound material, a Ni-NTA super flow packed column was used to pass through and wash the crude extract supernatant first with 10mM and then with 100 mM imidazole. Histidine-linked proteins were first eluted with 250 and then with 500 mM imidazole subsequent to dialysis against NaCl (50 mM), HEPES (20 mM), glycerol (10%) and 1 μg/mL each of aprotinin, leupeptin and pepstatin for 120 min. The purification was performed either at 4 °C or on ice. To record autophosphorylation level, EGFR kinase assay was carried out on the basis of DELFIA/Time-Resolved Fluorometry. The compounds were first
dissolved in DMSO absolute, subsequent to dilution to appropriate concentration using HEPES
(25 mM) at pH 7.4. Each compound (10 μL) was incubated with recombinant enzyme (10 μL, 5
ng for EGFR, 1:80 dilution in 100 mM HEPES) for 10 min at 25 °C, subsequent to the addition of
5X buffer (10 μL, containing 2 mM MnCl2, 100 μM Na3VO4, 20 mM HEPES and 1 mM DTT)
and ATP-MgCl2 (20 μL, containing 0.1 mM ATP and 50 mM MgCl2) and incubation for 1h. The
negative and positive controls were included in each plate by the incubation of enzyme either with
or without ATP-MgCl2. The liquid was removed after incubation and the plates were washed
thrice using a wash buffer. The Europium-tagged antiphosphotyrosine antibody (75 μL, 400 ng)
was added to each well followed by incubation of 1h and then washing of the plates using buffer.
The enhancement solution was added to each well and the signal was recorded at excitation and
The autophosphorylation percentage inhibition by compounds was calculated using the following equation:
calculated. The majority of signals detected by antiphosphotyrosine antibody were from EGFR because the enzyme preparation contained low impurities.

As a reminder, the IC50 is the concentration that inhibits the measured activity by half. In the case of `COc1ccc(-c2nc(SCc3nc(-c4ccc(Cl)cc4)no3)[nH]c(=O)c2C#N)cc1` [Compound 10k, 2-(((3-(4-Chlorophenyl)-1,2,4-oxadiazol-5-yl)methyl)thio)-4-(4-methoxyphenyl)-6-oxo-1,6-dihydropyrimidine-5-carbonitrile], in the assay with A-549 (lung cancer), the IC50 stood at 23 ± 1 nM. Moreover, in the assay with HT-29 (colon cancer), the IC50 was determined as 23 ± 1 nM. Further, in the assay on Bax, the Bax was found to be 545 ± 3 pg/mL and the “Bax Fold change” value is recorded as 9 fold. Also, on EGFR, the IC50 is 57 ± 3 nM and the “EGFR inhibitory potency relative to erlotinib” value came to 1.4 fold.

On to `COc1ccc(-c2noc(CSc3nc(-c4ccc(OC)cc4)c(C#N)c(=O)[nH]3)n2)cc1` [Compound 10l, 2-(((3-(4-Methoxyphenyl)-1,2,4-oxadiazol-5-yl)methyl)thio)-4-(4-methoxyphenyl)-6-oxo-1,6-dihydropyrimidine-5-carbonitrile], for which the concentration for half-maximal inhibition (IC50) with A-549 (lung cancer) was determined as 28 ± 1 nM. Also, the concentration for half-maximal inhibition (IC50) with HT-29 (colon cancer) turned out to be 28 ± 1 nM. Besides, in the assay on Bax, the Bax stood at 505 ± 3 pg/mL and the “Bax Fold change” value is 8 fold. Also, at EGFR, the 50% inhibitory concentration (IC50) was 61 ± 4 nM and the “EGFR inhibitory potency relative to erlotinib” value is on record as 1.3 fold.
